Test results: ChEMBL document CHEMBL4507264, “Data for DCP probe BAY-7598” (2021)

How the values were obtained:
[1] = target: Serine/threonine-protein kinase PLK3 (Homo sapiens) (UniProt Q9H4B4); conditions: Compound concentration 1000.0 nM
[2] = target: 5'-AMP-activated protein kinase catalytic subunit alpha-1 (Homo sapiens) (UniProt Q13131); conditions: Compound concentration 1000.0 nM
[3] = target: Serine/threonine-protein kinase Nek1 (Homo sapiens) (UniProt Q96PY6); conditions: Compound concentration 1000.0 nM
[4] = system: Tyrosine-protein kinase ABL1 (Homo sapiens), P00519 [M351T]; conditions: Compound concentration 1000.0 nM
[5] = system: Tyrosine-protein kinase ABL1 (Homo sapiens), P00519 [Y253F]; conditions: Compound concentration 1000.0 nM
[6] = target: Proto-oncogene tyrosine-protein kinase Src (Homo sapiens) (UniProt P12931); conditions: Compound concentration 1000.0 nM
[7] = target: Mitogen-activated protein kinase 3 (Homo sapiens) (UniProt P27361); conditions: Compound concentration 1000.0 nM
[8] = target: Non-receptor tyrosine-protein kinase TYK2 (Homo sapiens) (UniProt P29597); conditions: Compound concentration 1000.0 nM
[9] = target: Tyrosine-protein kinase TXK (Homo sapiens) (UniProt P42681); conditions: Compound concentration 1000.0 nM
[10] = target: Tyrosine-protein kinase CSK (Homo sapiens) (UniProt P41240); conditions: Compound concentration 1000.0 nM
[11] = target: Ephrin type-A receptor 6 (Homo sapiens) (UniProt Q9UF33); conditions: Compound concentration 1000.0 nM
[12] = target: Mitogen-activated protein kinase kinase kinase 13 (Homo sapiens) (UniProt O43283); conditions: Compound concentration 1000.0 nM
[13] = target: Serine/threonine-protein kinase RIO2 (Homo sapiens) (UniProt Q9BVS4); conditions: Compound concentration 1000.0 nM
[14] = system: Phosphatidylinositol 4,5-bisphosphate 3-kinase catalytic subunit alpha isoform (Homo sapiens), P42336 [E542K]; conditions: Compound concentration 1000.0 nM
[15] = target: Membrane-associated tyrosine- and threonine-specific cdc2-inhibitory kinase (Homo sapiens) (UniProt Q99640); conditions: Compound concentration 1000.0 nM
[16] = system: Tyrosine-protein kinase ABL1 (Homo sapiens), P00519 [F317L]; conditions: Compound concentration 1000.0 nM
[17] = system: Receptor-type tyrosine-protein kinase FLT3 (Homo sapiens), P36888 [N841I]; conditions: Compound concentration 1000.0 nM
[18] = target: Ribosomal protein S6 kinase alpha-4 (Homo sapiens) (UniProt O75676); conditions: Compound concentration 1000.0 nM
[19] = target: Homeodomain-interacting protein kinase 3 (Homo sapiens) (UniProt Q9H422); conditions: Compound concentration 1000.0 nM
[20] = target: Fibroblast growth factor receptor 3 (Homo sapiens) (UniProt P22607); conditions: Compound concentration 1000.0 nM
[21] = system: Tyrosine-protein kinase ABL1 (Homo sapiens), P00519 [Q252H]; conditions: Compound concentration 1000.0 nM
[22] = target: Cyclin-dependent kinase 13 (Homo sapiens) (UniProt Q14004); conditions: Compound concentration 1000.0 nM
[23] = target: Non-receptor tyrosine-protein kinase TYK2 (Homo sapiens) (UniProt P29597); conditions: Compound concentration 1000.0 nM; remark: listed apart in the source
[24] = target: Macrophage colony-stimulating factor 1 receptor (Homo sapiens) (UniProt P07333); conditions: Compound concentration 1000.0 nM
[25] = target: Mitogen-activated protein kinase kinase kinase 4 (Homo sapiens) (UniProt Q9Y6R4); conditions: Compound concentration 1000.0 nM
[26] = target: Cyclin-dependent kinase 18 (Homo sapiens) (UniProt Q07002); conditions: Compound concentration 1000.0 nM
[27] = target: Calcium/calmodulin-dependent protein kinase type II subunit delta (Homo sapiens) (UniProt Q13557); conditions: Compound concentration 1000.0 nM
[28] = target: Calcium-dependent protein kinase 1 (Plasmodium falciparum) (UniProt P62344); conditions: Compound concentration 1000.0 nM
[29] = target: Tyrosine-protein kinase ABL1 (Homo sapiens) (UniProt P00519); conditions: Compound concentration 1000.0 nM
[30] = target: Phosphatidylinositol 4,5-bisphosphate 3-kinase catalytic subunit alpha isoform (Homo sapiens) (UniProt P42336); conditions: Compound concentration 1000.0 nM
[31] = target: Vascular endothelial growth factor receptor 2 (Homo sapiens) (UniProt P35968); conditions: Compound concentration 1000.0 nM
[32] = target: Mitogen-activated protein kinase kinase kinase 5 (Homo sapiens) (UniProt Q99683); conditions: Compound concentration 1000.0 nM
[33] = target: Serine/threonine-protein kinase MRCK gamma (Homo sapiens) (UniProt Q6DT37); conditions: Compound concentration 1000.0 nM
[34] = target: Cyclin-dependent kinase 4 (Homo sapiens) (UniProt P11802); conditions: Compound concentration 1000.0 nM
[35] = target: Phosphatidylinositol 4,5-bisphosphate 3-kinase catalytic subunit delta isoform (Homo sapiens) (UniProt O00329); conditions: Compound concentration 1000.0 nM
[36] = target: Activin receptor type-2A (Homo sapiens) (UniProt P27037); conditions: Compound concentration 1000.0 nM
[37] = target: Cyclin-dependent kinase 19 (Homo sapiens) (UniProt Q9BWU1); conditions: Compound concentration 1000.0 nM
[38] = target: ALK tyrosine kinase receptor (Homo sapiens) (UniProt Q9UM73); conditions: Compound concentration 1000.0 nM
[39] = target: Dual specificity tyrosine-phosphorylation-regulated kinase 1B (Homo sapiens) (UniProt Q9Y463); conditions: Compound concentration 1000.0 nM
[40] = target: Serine/threonine-protein kinase Chk2 (Homo sapiens) (UniProt O96017); conditions: Compound concentration 1000.0 nM
[41] = target: Alpha-2B adrenergic receptor (Homo sapiens) (UniProt P18089); conditions: Compound concentration 10.0 uM
[42] = system: Mast/stem cell growth factor receptor Kit (Homo sapiens), P10721 [V559D,V654A]; conditions: Compound concentration 1000.0 nM
[43] = target: Dual specificity mitogen-activated protein kinase kinase 5 (Homo sapiens) (UniProt Q13163); conditions: Compound concentration 1000.0 nM
[44] = target: Dual specificity tyrosine-phosphorylation-regulated kinase 2 (Homo sapiens) (UniProt Q92630); conditions: Compound concentration 1000.0 nM

Sequence of Non-receptor tyrosine-protein kinase TYK2 (Homo sapiens) (P29597 whole entry): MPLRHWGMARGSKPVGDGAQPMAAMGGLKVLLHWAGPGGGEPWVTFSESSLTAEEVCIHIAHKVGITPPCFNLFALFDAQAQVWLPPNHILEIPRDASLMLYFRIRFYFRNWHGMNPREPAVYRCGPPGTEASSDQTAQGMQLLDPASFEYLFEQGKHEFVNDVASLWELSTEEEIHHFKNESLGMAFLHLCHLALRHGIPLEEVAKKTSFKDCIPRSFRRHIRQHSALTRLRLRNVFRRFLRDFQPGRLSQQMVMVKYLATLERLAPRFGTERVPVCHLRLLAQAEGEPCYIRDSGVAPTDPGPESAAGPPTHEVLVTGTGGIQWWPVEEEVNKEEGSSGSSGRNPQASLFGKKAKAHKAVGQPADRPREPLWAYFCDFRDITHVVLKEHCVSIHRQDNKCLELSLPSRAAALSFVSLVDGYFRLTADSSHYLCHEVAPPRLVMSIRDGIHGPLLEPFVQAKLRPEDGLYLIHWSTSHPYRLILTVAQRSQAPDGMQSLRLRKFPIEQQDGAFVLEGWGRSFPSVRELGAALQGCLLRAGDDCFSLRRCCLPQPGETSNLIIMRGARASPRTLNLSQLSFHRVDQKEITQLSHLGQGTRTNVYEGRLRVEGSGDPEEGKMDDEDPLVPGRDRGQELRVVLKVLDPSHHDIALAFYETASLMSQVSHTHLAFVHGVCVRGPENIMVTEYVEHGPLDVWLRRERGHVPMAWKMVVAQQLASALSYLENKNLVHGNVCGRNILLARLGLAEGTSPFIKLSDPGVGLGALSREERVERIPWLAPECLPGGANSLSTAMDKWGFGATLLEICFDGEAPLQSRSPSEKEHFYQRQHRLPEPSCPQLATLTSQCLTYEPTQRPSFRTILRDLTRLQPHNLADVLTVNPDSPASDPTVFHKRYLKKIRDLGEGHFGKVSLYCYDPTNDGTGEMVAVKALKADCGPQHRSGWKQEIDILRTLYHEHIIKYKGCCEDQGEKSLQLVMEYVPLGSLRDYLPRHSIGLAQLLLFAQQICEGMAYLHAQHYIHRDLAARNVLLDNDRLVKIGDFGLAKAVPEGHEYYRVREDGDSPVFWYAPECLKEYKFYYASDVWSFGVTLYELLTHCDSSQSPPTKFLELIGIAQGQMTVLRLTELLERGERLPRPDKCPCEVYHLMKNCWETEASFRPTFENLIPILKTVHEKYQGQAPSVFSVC
Sequence of Cyclin-dependent kinase 13 (Homo sapiens) (Q14004 whole entry, looked up): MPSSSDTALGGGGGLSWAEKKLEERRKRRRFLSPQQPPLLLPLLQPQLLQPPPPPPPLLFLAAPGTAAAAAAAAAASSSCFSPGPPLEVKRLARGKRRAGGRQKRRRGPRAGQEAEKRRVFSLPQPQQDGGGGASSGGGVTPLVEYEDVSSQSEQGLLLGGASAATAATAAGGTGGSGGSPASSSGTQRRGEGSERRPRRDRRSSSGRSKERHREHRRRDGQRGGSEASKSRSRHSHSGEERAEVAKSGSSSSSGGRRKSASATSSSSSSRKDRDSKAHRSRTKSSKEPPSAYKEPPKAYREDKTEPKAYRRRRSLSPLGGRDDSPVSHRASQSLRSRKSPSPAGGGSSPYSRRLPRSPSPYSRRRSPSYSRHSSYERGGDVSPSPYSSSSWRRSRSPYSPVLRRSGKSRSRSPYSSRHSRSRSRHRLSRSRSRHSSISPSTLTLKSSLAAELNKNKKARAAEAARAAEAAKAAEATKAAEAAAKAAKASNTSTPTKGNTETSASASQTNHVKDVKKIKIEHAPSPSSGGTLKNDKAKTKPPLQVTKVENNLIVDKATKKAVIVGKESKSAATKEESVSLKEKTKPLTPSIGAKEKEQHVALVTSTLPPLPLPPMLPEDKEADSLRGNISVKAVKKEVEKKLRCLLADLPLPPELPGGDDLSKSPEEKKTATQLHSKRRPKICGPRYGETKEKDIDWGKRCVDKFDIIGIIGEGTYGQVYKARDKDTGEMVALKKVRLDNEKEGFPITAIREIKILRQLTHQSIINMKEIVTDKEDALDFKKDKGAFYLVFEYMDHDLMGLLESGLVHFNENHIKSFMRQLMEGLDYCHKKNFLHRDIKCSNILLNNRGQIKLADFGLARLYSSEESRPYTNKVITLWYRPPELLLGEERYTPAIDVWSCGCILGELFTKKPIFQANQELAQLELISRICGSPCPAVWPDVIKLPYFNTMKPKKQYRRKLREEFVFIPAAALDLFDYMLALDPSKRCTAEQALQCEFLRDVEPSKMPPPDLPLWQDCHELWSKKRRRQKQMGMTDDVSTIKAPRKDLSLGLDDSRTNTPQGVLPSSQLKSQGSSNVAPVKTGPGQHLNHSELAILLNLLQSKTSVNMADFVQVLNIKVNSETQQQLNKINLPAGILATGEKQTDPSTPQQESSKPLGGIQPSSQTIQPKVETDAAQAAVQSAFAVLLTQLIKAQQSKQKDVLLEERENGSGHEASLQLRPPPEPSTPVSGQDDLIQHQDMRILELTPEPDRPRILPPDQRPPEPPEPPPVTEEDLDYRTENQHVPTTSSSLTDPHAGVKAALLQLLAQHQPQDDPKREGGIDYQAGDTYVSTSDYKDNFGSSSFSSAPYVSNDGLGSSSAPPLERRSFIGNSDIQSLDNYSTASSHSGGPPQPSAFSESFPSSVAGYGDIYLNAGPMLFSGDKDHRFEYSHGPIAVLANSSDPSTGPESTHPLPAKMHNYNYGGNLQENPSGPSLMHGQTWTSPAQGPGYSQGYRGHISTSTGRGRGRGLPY
Sequence of Membrane-associated tyrosine- and threonine-specific cdc2-inhibitory kinase (Homo sapiens) (Q99640 whole entry): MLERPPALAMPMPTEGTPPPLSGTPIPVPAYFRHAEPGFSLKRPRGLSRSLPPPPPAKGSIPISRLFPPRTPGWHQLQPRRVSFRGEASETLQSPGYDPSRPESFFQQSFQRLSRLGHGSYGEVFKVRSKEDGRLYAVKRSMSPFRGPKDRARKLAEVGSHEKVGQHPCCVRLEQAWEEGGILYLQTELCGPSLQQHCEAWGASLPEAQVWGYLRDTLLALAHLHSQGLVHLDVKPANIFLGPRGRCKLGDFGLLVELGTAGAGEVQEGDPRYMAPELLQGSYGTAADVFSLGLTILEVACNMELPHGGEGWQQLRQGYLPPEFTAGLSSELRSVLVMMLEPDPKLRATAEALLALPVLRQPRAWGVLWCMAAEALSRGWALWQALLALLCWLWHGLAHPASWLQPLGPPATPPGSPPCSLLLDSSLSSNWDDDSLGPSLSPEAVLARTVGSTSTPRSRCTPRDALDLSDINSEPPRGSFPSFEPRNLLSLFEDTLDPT
Sequence of Proto-oncogene tyrosine-protein kinase Src (Homo sapiens) (P12931 2-536 limits assumed): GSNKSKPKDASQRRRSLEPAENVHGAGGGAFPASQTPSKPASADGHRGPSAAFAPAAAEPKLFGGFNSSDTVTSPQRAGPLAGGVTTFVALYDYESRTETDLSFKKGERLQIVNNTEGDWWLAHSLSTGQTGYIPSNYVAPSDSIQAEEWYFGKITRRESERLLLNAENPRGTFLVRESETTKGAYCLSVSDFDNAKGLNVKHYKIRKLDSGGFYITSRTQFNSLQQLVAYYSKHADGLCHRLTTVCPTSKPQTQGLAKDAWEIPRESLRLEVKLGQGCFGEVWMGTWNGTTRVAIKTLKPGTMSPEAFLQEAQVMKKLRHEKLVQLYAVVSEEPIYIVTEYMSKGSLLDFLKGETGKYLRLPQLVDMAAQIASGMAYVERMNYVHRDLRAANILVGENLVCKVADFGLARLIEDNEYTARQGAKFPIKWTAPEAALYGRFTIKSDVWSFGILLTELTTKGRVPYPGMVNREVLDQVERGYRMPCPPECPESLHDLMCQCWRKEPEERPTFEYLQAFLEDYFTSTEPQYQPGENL
Sequence of Phosphatidylinositol 4,5-bisphosphate 3-kinase catalytic subunit alpha isoform (Homo sapiens) (P42336 whole entry, canonical isoform): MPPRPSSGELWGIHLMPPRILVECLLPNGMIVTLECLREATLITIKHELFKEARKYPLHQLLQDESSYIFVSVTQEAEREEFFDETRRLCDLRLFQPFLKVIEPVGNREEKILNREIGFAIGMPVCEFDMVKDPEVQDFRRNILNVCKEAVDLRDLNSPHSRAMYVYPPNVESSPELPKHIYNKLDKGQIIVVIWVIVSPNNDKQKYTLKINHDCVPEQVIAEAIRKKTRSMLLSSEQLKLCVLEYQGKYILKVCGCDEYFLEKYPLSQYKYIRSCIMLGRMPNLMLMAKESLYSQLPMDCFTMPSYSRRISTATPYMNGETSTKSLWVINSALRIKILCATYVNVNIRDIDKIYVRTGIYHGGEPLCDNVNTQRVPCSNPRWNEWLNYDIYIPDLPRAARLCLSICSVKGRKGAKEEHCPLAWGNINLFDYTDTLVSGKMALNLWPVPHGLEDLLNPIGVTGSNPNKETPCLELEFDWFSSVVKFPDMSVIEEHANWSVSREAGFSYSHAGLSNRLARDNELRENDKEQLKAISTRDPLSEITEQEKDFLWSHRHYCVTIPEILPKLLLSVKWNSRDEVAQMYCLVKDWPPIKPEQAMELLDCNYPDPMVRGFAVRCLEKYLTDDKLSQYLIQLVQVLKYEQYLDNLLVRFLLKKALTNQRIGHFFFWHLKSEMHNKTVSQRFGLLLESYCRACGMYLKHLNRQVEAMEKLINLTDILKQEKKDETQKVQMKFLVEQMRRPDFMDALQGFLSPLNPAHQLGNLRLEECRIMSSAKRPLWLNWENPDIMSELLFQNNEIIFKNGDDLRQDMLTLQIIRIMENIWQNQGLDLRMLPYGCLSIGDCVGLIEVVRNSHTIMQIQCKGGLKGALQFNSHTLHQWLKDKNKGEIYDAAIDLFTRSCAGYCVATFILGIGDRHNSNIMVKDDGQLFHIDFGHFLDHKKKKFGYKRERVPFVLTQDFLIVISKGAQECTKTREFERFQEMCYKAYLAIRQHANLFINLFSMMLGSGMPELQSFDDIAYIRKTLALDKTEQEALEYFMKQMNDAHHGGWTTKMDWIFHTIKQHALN
Sequence of Phosphatidylinositol 4,5-bisphosphate 3-kinase catalytic subunit alpha isoform (Homo sapiens), P42336 [E542K] (P42336 whole entry E542K, canonical isoform): as the sequence (P42336 whole entry, canonical isoform) above, with E542K counted along it

Which results are given for `O=C(O)[C@@H]1[C@@H](Cn2nnc3ccccc3c2=O)CC[C@H]1C(=O)c1ccc(OCCC2CCOCC2)cc1` [BAY-694]?
residual activity [1]: 87%; residual activity [2]: 100%; residual activity [3]: 100%; residual activity [4]: 95%; residual activity [5]: 100%; residual activity [6]: 89%; residual activity [7]: 100%; residual activity [8]: 58%; residual activity [9]: 94%; residual activity [10]: 90%; residual activity [11]: 97%; residual activity [12]: 70%; residual activity [13]: 88%; residual activity [14]: 62%; residual activity [15]: 82%; residual activity [16]: 86%; residual activity [17]: 98%; residual activity [18]: 100%; residual activity [19]: 100%; residual activity [20]: 100%; residual activity [21]: 96%; residual activity [22]: 92%; residual activity [23]: 100%; residual activity [24]: 100%; residual activity [25]: 91%; residual activity [26]: 90%; residual activity [27]: 100%; residual activity [28]: 100%; residual activity [29]: 79%; residual activity [30]: 100%; residual activity [31]: 78%; residual activity [32]: 94%; residual activity [33]: 100%; residual activity [34]: 83%; residual activity [35]: 99%; residual activity [36]: 100%; residual activity [37]: 100%; residual activity [38]: 100%; residual activity [39]: 86%; residual activity [40]: 100%; inhibition [41]: 8.62%; residual activity [42]: 94%; residual activity [43]: 73%; residual activity [44]: 90%

What does the source list for `O=C(O)[C@H]1[C@H](Cn2nnc3ccccc3c2=O)CC[C@@H]1C(=O)c1ccc(OCCC2CCOCC2)cc1` [BAY-7598]?
residual activity [1]: 100%; residual activity [2]: 100%; residual activity [3]: 82%; residual activity [4]: 82%; residual activity [5]: 100%; residual activity [6]: 89%; residual activity [7]: 94%; residual activity [8]: 41%; residual activity [9]: 100%; residual activity [10]: 100%; residual activity [11]: 85%; residual activity [12]: 96%; residual activity [13]: 100%; residual activity [14]: 71%; residual activity [15]: 96%; residual activity [16]: 75%; residual activity [17]: 85%; residual activity [18]: 100%; residual activity [19]: 99%; residual activity [20]: 100%; residual activity [21]: 98%; residual activity [22]: 93%; residual activity [23]: 100%; residual activity [24]: 81%; residual activity [25]: 100%; residual activity [26]: 84%; residual activity [27]: 86%; residual activity [28]: 100%; residual activity [29]: 89%; residual activity [30]: 100%; residual activity [31]: 88%; residual activity [32]: 95%; residual activity [33]: 93%; residual activity [34]: 89%; residual activity [35]: 89%; residual activity [36]: 87%; residual activity [37]: 100%; residual activity [38]: 100%; residual activity [39]: 100%; residual activity [40]: 100%; inhibition [41]: 3.34%; residual activity [42]: 100%; residual activity [43]: 100%; residual activity [44]: 93%
